“Also recorded” adds a separate entry of the source. Read-outs that look alike come from different tables or passages of the source.
Key:
[1] = Maximum wavelength λmax of photocatalysts; type: physicochemical; conditions: Table 1
PC 12 cells [2] = type: cell-based; conditions: 5 minutes then 48 hours, n=5, mean±SEM, Table 1
Method: Rat pheochromocytoma PC 12 cells were suspended with DMEM containing 5% horse serum and 10% fetal bovine serum, seeded in a poly-D-lysine-coated 96-well plate at a concentration of 10,000 cells per well, and incubated in a 5% carbon dioxide atmosphere at 37° C. for 3 days. After the solvent was removed, the cells were washed with 150 μL of serum-free DMEM, and DMEM (75 μL) containing 0.1% horse serum was added thereto. Thereafter, the 96-well plate was incubated in a 5% carbon dioxide atmosphere at 37° C. for 1 day for use in oxygenation reaction. In oxygenation reaction, the compound E (100 μM dimethyl sulfoxide solution) was added to a phosphate buffer saline containing Aβ (aggregated in advance for 3 hours, 40 μM) and 25 μL of the above cell solution (final concentration of Aβ: 10 μM, final concentration of compound E: 1 μM). The mixture was irradiated with an LED (wavelength: 780 nm) at a distance of approximately 5 cm at 37° C. for 5 minutes. The cells were incubated in a 5% carbon dioxide atmosphere at 37° C. for 48 hours. The cell viability was measured by using the Cell Count Reagent SF (NACALAI TESQUE, INC., Kyoto, Japan) with WST-8 (2-(2-methoxy-4-nitrophenyl)-3-(4-nitrophenyl)-5-(2,4-disulfophenyl)-2H-tetrazolium).
b: LC50 (dark) indicates the toxicity of a compound itself, and LC50 (light) indicates the phototoxicity of a compound. The PC 12 cells were placed in dark or subjected to photocatalytic treatment under light irradiation (wavelength: 660 nm), and incubated at 37° C. for 5 minutes, and then in a 5% carbon dioxide atmosphere at 37° C. for 48 hours, for which the cell viability was analyzed (n=5, mean±SEM).
b: The PC 12 cells were treated together with a photocatalyst (1 μM) at 37° C. for 5 minutes in dark or under light irradiation (wavelength: 780 nm), and thereafter the cell viability was analyzed (n=3, mean±SEM).

Aβ1-42 [3] = biological target: T1, Aβ1-42 (Homo sapiens, UniProt P05067); assay: Degree of oxygenation of pre-aggregated Aβ1-42 (MALDI-TOF MS), Test Example 10; type: biochemical; conditions: pre-aggregated Aβ1-42 20 μM, catalyst 2 μM, phosphate buffer pH 7.4, 660 nm, 37° C., 30 minutes
T1 construct: phosphate buffer (pH 7.4)/cell culture solution (containing 0.1% horse serum) (1:3) containing Aβ1-42 (10 μM)
Method: (§1) Aβ1-42 isopeptide (concentration: 250 μM in 0.1% aqueous solution of trifluoroacetic acid), angiotensin IV (200 μM aqueous solution), Met-enkephalin (200 μM aqueous solution), and somatostatin (200 μM aqueous solution) were added to a phosphate buffer or phosphate buffer saline (pH 7.4) (with 0.1 M aqueous solution of sodium hydroxide, as necessary) so that a final peptide concentration of 20 μM or 40 μM (pH 7.4) was reached. Before being subjected to oxygenation reaction, the Aβ1-42 solution was incubated at 37° C. for 1 to 3 hours. The phosphate buffer containing 40 μM of Aβ was diluted with a Dulbecco's modified Eagle's medium (DMEM, Life Technologies) containing 0.1% horse serum and buffered with 25 mM of 4-(2-hydroxyethyl)-1-piperazineethanesulfonic acid (HEPES).
(§2) Solutions of the compounds with a final concentration of 2 μM were used for evaluation of oxygenation of Aβ1-42. Solutions of the compounds with a final concentration of 5 μM were used for evaluation of peptide selectivity. Each mixture was subjected to light irradiation with an LED (wavelength: 500, 660, or 780 nm) at a distance of approximately 5 to 10 cm at room temperature. A control group without light irradiation was additionally prepared. Reaction was analyzed through monitor analysis with a MALDI-TOF MS. Degree of oxygenation was determined as a ratio: degree of oxygenation (%)=(total of MS intensities for n[O] adducts)/(MS intensity for native+total of MS intensities for n[O] adducts)×100. Aliquots of each reaction solution were desalted with a ZipTip U-C18 (Merck Millipore), as necessary, before mass spectrometry.
a: A phosphate buffer (pH 7.4) solution containing pre-aggregated Aβ1-42 (20 μM, incubated at 37° C. for 3 hours) and a catalyst (2 μM) was subjected to light irradiation (wavelength: 660 nm) at 37° C. for 30 minutes. Thereafter, the reaction mixture was analyzed by using a MALDI-TOF MS.
a: A phosphate buffer (pH 7.4) containing pre-aggregated Aβ1-42 (20 μM, obtained through incubation at 37° C. for 3 hours) and a catalyst (2 μM) were subjected to light irradiation at 780 nm (14 mW) at 37° C. for 30 minutes. The reaction mixture was analyzed by using a MALDI-TOF MS.

[4] = Stability of catalyst in neutral phosphate buffer without or under light irradiation (HPLC), Test Example 5; type: physicochemical; conditions: under light irradiation (660 nm)
Method: A neutral phosphate buffer containing a catalyst was incubated without light irradiation or under light irradiation (660 nm), and thereafter ethanol containing benzyl alcohol (as an internal standard) was added thereto, and analysis was performed by using HPLC.

[5] = Oxygenation of benzoylmethionine in glycerol/water (LC/MS), Test Example 4; conditions: compound 2 μM, benzoylmethionine 2000 μM, glycerol/water 0:100 to 50:50, LED 730 nm, room temperature
Method: The compound K (2 μM) was added to glycerol/water (0:100, 10:90, 30:70, 50:50) dissolving benzoylmethionine (2000 μM) therein, and the resultant was subjected to LED irradiation (wavelength: 730 nm) at room temperature, and thereafter the reaction was tracked by using LC/MS (ESI-Q).

Aβ1-42 [6] = biological target: T1, Aβ1-42; assay: In vitro oxygenation experiment using Aβ1-42 as a substrate (MALDI-TOF MS), Test Example 1; type: biochemical; conditions: test compound 1 μM, Aβ1-42 10 μM, LED irradiation at 730 nm, 37° C.
Method: An in vitro oxygenation experiment using Aβ1-42 as a substrate was conducted to confirm that each of the inventive compounds actually have Aβ oxygenation activity. A test compound (1 μM in each case) was added to phosphate buffer (pH 7.4)/cell culture solution (containing 0.1% horse serum) (1:3) containing Aβ1-42 (10 μM), and incubated under LED irradiation (wavelength: 660 nm, 730 nm) at 37° C., and then the reaction was tracked by using a mass spectrometer (MALDI-TOF MS). The native Aβ1-42 and the Na^+ adduct were mainly observed before light irradiation. After light irradiation, an ion peak indicating the presence of the oxygenated form was observed over time (FIG. 1, FIG. 2).

PC 12 cells [7] = assay: Cytotoxicity under light irradiation, WST-8 cell viability, Test Example 2; type: cell-based, rat; conditions: LED 660 nm, 10 mW, 5 minutes, then 48 hours
Method: A culture medium for rat adrenal medulla-derived pheochromocytoma PC 12 cells (purchased from RIKEN, Japan) seeded on a poly-D-lysine-coated 96-well plate was replaced with 75 μL of a Dulbecco's modified Eagle's medium containing 0.1% horse serum, and the culture was incubated in a 5% CO2 atmosphere at 37° C. for 1 day, and 25 μL of a phosphate buffer saline (pH 7.4) containing a inventive compound was then added thereto. Thereafter, the mixed solution was incubated under LED irradiation (wavelength: 660 nm, 10 mW) (without light irradiation for dark) at 37° C. for 5 minutes. Further, the cell culture plate containing the reaction solution was incubated in a 5% CO2 atmosphere at 37° C. for 48 hours. Finally, the Cell Count Reagent SF (10 μL: purchased from NACALAI TESQUE, INC.) containing WST-8 was added, and the culture was incubated in a 5% CO2 atmosphere at 37° C. for 3 hours, and thereafter the cell viability was determined from the absorbance at 450 nm (reference wavelength: 655 nm).

Aβ peptide = biological target: T2, Aβ peptide (Homo sapiens, UniProt P05067); assay: Aβ selectivity of oxygenation, Test Example 9; type: biochemical; conditions: peptide 20 μM, riboflavin 5 μM, 500 nm, 37° C., 30 minutes
T2 construct: Aβ1-42 isopeptide (concentration: 250 μM in 0.1% aqueous solution of trifluoroacetic acid)
Method: as §1
as §2, with “Each mixture was subjected to light irradiation with an LED (wavelength: 500, 660, or 780 nm) at a distance of approximately 5 to 10 cm at room temperature.” left out

somatostatin (Sst) = biological target: T3, somatostatin (Sst) (Homo sapiens, UniProt P61278); assay: Aβ selectivity of oxygenation, Test Example 9; type: biochemical; conditions: peptide 20 μM, riboflavin 5 μM, 500 nm, 37° C., 30 minutes
T3 construct: angiotensin-IV (AT4), Met-enkephalin (ME), or somatostatin (Sst) (20 μM in each case)
Method: as §1
as §2, with “Each mixture was subjected to light irradiation with an LED (wavelength: 500, 660, or 780 nm) at a distance of approximately 5 to 10 cm at room temperature.” left out

Met-enkephalin (ME) = biological target: T4, Met-enkephalin (ME) (Homo sapiens, UniProt P01210); assay: Aβ selectivity of oxygenation, Test Example 9; type: biochemical; conditions: peptide 20 μM, riboflavin 5 μM, 500 nm, 37° C., 30 minutes
T4 construct: angiotensin-IV (AT4), Met-enkephalin (ME), or somatostatin (Sst) (20 μM in each case)
Method: as §1
as §2, with “Each mixture was subjected to light irradiation with an LED (wavelength: 500, 660, or 780 nm) at a distance of approximately 5 to 10 cm at room temperature.” left out

angiotensin-IV (AT4) = biological target: T5, angiotensin-IV (AT4) (Homo sapiens, UniProt P01019); assay: Aβ selectivity of oxygenation, Test Example 9; type: biochemical; conditions: peptide 20 μM, riboflavin 5 μM, 500 nm, 37° C., 30 minutes
T5 construct: angiotensin-IV (AT4), Met-enkephalin (ME), or somatostatin (Sst) (20 μM in each case)
Method: as §1
as §2, with “Each mixture was subjected to light irradiation with an LED (wavelength: 500, 660, or 780 nm) at a distance of approximately 5 to 10 cm at room temperature.” left out

Arctic Aβ1-38 = biological target: T6, Arctic Aβ1-38 (Homo sapiens, UniProt P05067, E693G); type: biochemical; conditions: mouse brain lysate, riboflavin, light irradiation
T6 construct: The peak intensity decreased by 36%/53%/74% for Arctic Aβ1-38; from tissue; host or cells: cerebral cortex and hippocampus of App knock-in mouse
Method: The brain excised from an eight-month-old App knock-in (App^NL-C-F/NL-C-F) mouse (Alzheimer's model mouse) was separated into the cerebral cortex, the hippocampus, and the residual brain tissues. The cerebral cortex and the hippocampus were homogenized together in a phosphate buffer saline, and the suspension was stored at −80° C. […] At an arbitrary point of time, an arbitrary aliquot of the reaction mixture was diluted with formic acid to a final concentration of 70%, concentrated, and redissolved in a 6 M aqueous solution of urea.

For CN(C)c1ccc(/C=C/C2=C(Br)C(/C=C/c3ccc4c(c3)CCCN4CCCCCC(=O)O)=[O+][B-](F)(C(F)(F)F)O2)cc1 (stereo not shown) [Compound K], the “Maximum wavelength λmax (nm)” value [1] was 620 nm, the CC50 (PC 12 cells [2]; PC 12 cells in dark, read-out: LC50 (dark)) was 1890 nM and the CC50 (PC 12 cells [2]; PC 12 cells, light irradiation 660 nm, read-out: LC50 (light)) was 143 nM. For the same compound, the “Degree of oxygenation (%) of Aβ42 (λ = 660 nm)” value (Aβ1-42 [3]) was 86%, the “stability of catalyst (ranking)” value [4] was “higher in the order of BFCF3 (compound K)<BFCF2CF3 (compound J)” and the “benzoylmethionine/oxygenated form ratio (%)” value [5] was “higher as the concentration of glycerol, which has high viscosity, was higher”. For the same compound, the “oxygenation of Aβ1-42 under light irradiation” value (Aβ1-42 [6]) was “oxygenation of the Aβ proceeded” and the “toxicity under light irradiation (ranking)” value (PC 12 cells [7]) was “higher in the order of the compound J, the compound K, and the compound L; also recorded: iodine provides more reduced toxicity than in the case of bromine”.

In the case of Cc1cc2nc3c(=O)[nH]c(=O)nc-3n(C[C@H](O)[C@H](O)[C@H](O)CO)c2cc1C [riboflavin, reference compound], the “yield of oxygenated Aβ” value (Aβ peptide) is reported as 43%, the “yield of oxygenated somatostatin” value (somatostatin (Sst)) is reported as 60% and the “yield of oxygenated Met-enkephalin” value (Met-enkephalin (ME)) is reported as 50%. The “yield of oxygenated angiotensin-IV” value (angiotensin-IV (AT4)) was 35% and the “consumption of Aβ1-38” value (Arctic Aβ1-38) was “consumed to a significant degree”.

From patent publication US10669287B2, “Curcumin-boron complex and pharmaceutical containing same” (JAPAN SCIENCE AND TECHNOLOGY AGENCY, priority 2016, dated 2020)
